Results: patent US20130289112A1, “SALTS OF KUKOAMINE B, PREPARATION METHOD AND USE THEREOF” (priority 2010, published 2013)
Where a name gives a salt, the structure may show the parent alone.

Key:
sepsis model of mice = assay: Protective effect in the sepsis model of mice (cecal ligation and puncture, CLP); type: in vivo, Balb/c mice; details: 7 days; for survival rate of mice: combination with antibiotic (ampicillin sodium-sulbactam sodium 80 mg/kg), salt 2.5 mg/kg through tail vein at 0-68 hours after surgery; for protective effect to the sepsis model of mice: salt 2.5 mg/kg tail vein combined with antibiotic, FIG. 5
Excerpt: 19.1 Methods: 120 Balb/c mice, each of 19-21 g, half of which being male and half female, are divided into six groups randomly, including control group, antibiotic group, antibiotic and kukoamine B hydrochlorate group, antibiotic and kukoamine B methanesulfonate group, antibiotic and kukoamine B p-toluenesulfonate group, and antibiotic and kukoamine B benzene sulfonate group. Each group contains 20 mice. The mice are narcotized with anesthesia machine; the vapor concentration of isoflurane is 5%; the pressure of the mixed gas is 1 MPa; anesthesia time is about 5 min. The mice model are setup by cecal ligation and puncture (CLP) comprising the following steps: the mice are maintained in supine position, and the abdomen skin is disinfected with iodophor; the skin, muscular layer and peritoneum below the midpoint of linea alba 0.3 cm are cut open with ophthalmic scissors (the length of the incisions is 0.8 CM); the muscular layer is picked up with ophthalmic forceps, and the enterocoelia is explored with ophthalmic forceps; the cecum is pulled out and ligated with No. 4 suture at 0.5 CM from the end of cecum; then, the cecum is vertically punctured with No. 12 needle, and squeezed to extrude contents; finally, the cecum is put back and the incision is stitched. Thereafter, the mice in control group are injected with 0.2 ml of sterile saline through tail vein; the mice in antibiotic group are injected with antibiotic (ampicillin sodium-sulbactam sodium) at a dosage of 80 mg/kg body weight through tail vein at 4 hours after surgery; the mice in other four groups are separately injected with kukoamine B hydrochlorate, kukoamine B methanesulfonate, kukoamine B p-toluenesulfonate and kukoamine B benzene sulfonate at a dosage of 2.5 mg/kg body weight at a time through tail vein at 0, 4, 12, 20, 28, 36, 44, 52, 60 and 68 hours after surgery.

[1] = Affinity assay of salts of kukoamine B with lipid A (IAsys plus Affinity Sensor); type: binding; details: 1 mg in 1 ml PBS (0.01 M, pH 7.4), 5 μl added to cuvette with 45 μl PBS, immobilized lipid A, 3 min; curves in FIG. 1
Method: 15.1 Methods: The affinity assay is carried out according to the methods disclosed in the Chinese patent titled “Use of an active ingredient or active substance selected and isolated from traditional Chinese herbs in the preparation of drugs for treating sepsis” (Chinese patent Number ZL 200510070677.3) granted to the applicant, which mainly comprises the following steps:
(1) Lipid A is immobilized on the reacting surfaces of non-derivative cuvettes according to the instructions of immobilization of lipid in the manufacturer's instructions of IAsys plus Affinity Sensor. Wherein, the end of hydrophobic side chain of lipid A was immobilized on cuvette, and the hydrophilic end is floating outside, which act as target site of binding reaction;
(§1) (2) 1 mg of each of the salts, including kukoamine B hydrochlorate, kukoamine B hydrobromide, kukoamine B sulfate, kukoamine B phosphate, kukoamine B acetate, kukoamine B maleate, kukoamine B succinate, kukoamine B malate, kukoamine B lactate, kukoamine B tartrate, kukoamine B methanesulfonate, kukoamine B p-toluenesulfonate, kukoamine B glutamate, and kukoamine B aspartate, is fully dissolved by 1 ml of PBS solution (0.01 M, pH 7.4), respectively;
(3) 5 μl of each of the solution obtained in step (2) is added into the affinity sensor's cuvettes (containing 45 μl of PBS solution) previously immobilized with lipid A to carry out the reaction, respectively;
(4) The binding reaction is carried out for 3 min, and the binding curves are recorded;
(5) Each of the cuvettes is washed with 50 μl of PBS solution for 3 times, and dissociation curves are recorded;
(6) Each of the cuvettes is washed with 0.1 M HCl solution for 3 times, and the regeneration curves are recorded.

[2] = Neutralizing test on LPS in vitro (kinetic turbidimetric limulus test); type: biochemical; details: 20 μM solution mixed with equal volume of LPS 0.25 ng/ml, 37° C. 30 min, TAL reagent; FIG. 2
Method: 16.1 Methods: The neutralizing test is carried out according to the manufacturer's instructions of 32 Well Kinetic Tube Reader (ATi321-06) endotoxin detector, which mainly comprises the following steps:
as §1, with “(1) Each” for “(2) 1 mg of each”, “prepared into 20 μM” for “fully dissolved by 1 ml of PBS”, “with nonpyrogenic water,” for “(0.01 M, pH 7.4),”
(2) 100 μl of each of the solution obtained in step (1) is separately mixed with equal volume of LPS solution (0.25 ng/ml). At the same time, the control group is established, which is a mixed solution containing 100 μl of nonpyrogenic water and equal volume of LPS solution (0.25 ng/ml). The LPS group and control group are incubated at 37° C. for 30 min. Then, 100 μl of the reaction solutions of LPS group and control group are separately added into a detector tube containing 100 μl of TAL reagents, and LPS value of each group are detected by kinetic turbidimetric limulus test according to the manufacturer's instructions of 32 Well Kinetic Tube Reader (ATi321-06) Bacterial Endotoxin Detection system. The test of each concentration is repeated three times;

RAW264.7 cells [3] = assay: Inhibition of release of inflammatory mediators (TNF-α) in RAW264.7 cells induced by LPS; type: cell-based; details: LPS 100 ng/ml, salt 0, 50, 100, 200 μM, 4 h, ELISA, FIG. 3
Method: (§2) 17.1 Methods: RAW264.7 cells are diluted to 1×10^6/ml in DMEM culture medium, added into a 96-well cell culture plate (200 μl per well), and incubated at 37° C. in a 5% CO2 humidified incubator for 4 h, and then the supernatant is replaced with 200 μl of serum-free DMEM culture medium after cells attachment. Next, each well is added with LPS (final concentration of 100 ng/ml), and then added with one of the salts of kukoamine B (including kukoamine B malate, kukoamine B succinate, kukoamine B lactate, kukoamine B tartrate, kukoamine B methanesulfonate, kukoamine B p-toluenesulfonate, kukoamine B glutamate, kukoamine B acetate, kukoamine B hydrochlorate, and kukoamine B sulfate) to obtain the final concentration of 0, 50, 100, and 200 μM, respectively. The control group contains no LPS. Then, the incubation goes on for 4 h. The supernatant is collected to measure the concentration of TNF-α according to the manufacturer's instructions of ELISA kit.

RAW264.7 cells [4] = assay: Inhibition of release of inflammatory mediators (TNF-α) in RAW264.7 cells induced by CpG DNA; type: cell-based; details: CpG DNA 10 μg/ml, salt 0, 50, 100, 200 μM, 4 h, ELISA, FIG. 4
Method: as §2, with “18.1” for “17.1”, “CpG DNA” for “LPS”, “10 μg/ml ),” for “100 ng/ml),”, “CpG DNA.” for “LPS.”

Question: What does the source list for `NCCCN(CCCCNCCCNC(=O)CCc1ccc(O)c(O)c1)C(=O)CCc1ccc(O)c(O)c1` [kukoamine B hydrochlorate]?
Answer: survival rate of mice (sepsis model of mice): 20%; protective effect to the sepsis model of mice (sepsis model of mice): have protective effects to the sepsis model of mice

Question: Which “binding reaction with lipid A” value [1] does the source give for `NCCCN(CCCCNCCCNC(=O)CCc1ccc(O)c(O)c1)C(=O)CCc1ccc(O)c(O)c1` [kukoamine B hydrobromide] here?
Answer: can bind with lipid A

Question: What about the “neutralization of LPS in vitro” value [2] of the same compound?
Answer: can neutralize LPS in vitro

Question: Which “inhibition of the release of TNF-α induced by LPS” value (“inhibition of the release … by LPS” below) (RAW264.7 cells [3]) does the source give for `NCCCN(CCCCNCCCNC(=O)CCc1ccc(O)c(O)c1)C(=O)CCc1ccc(O)c(O)c1` [kukoamine B malate] here?
Answer: can inhibit the release of TNF-α

Question: What about the “inhibition of the release of TNF-α induced by CpG DNA” value (“inhibition … by CpG DNA” below) (RAW264.7 cells [4]) of the same compound?
Answer: can inhibit the release of TNF-α

Question: With `CS(=O)(=O)O.NCCCN(CCCCNCCCNC(=O)CCc1ccc(O)c(O)c1)C(=O)CCc1ccc(O)c(O)c1` [kukoamine B methanesulfonate] as the compound, how does the “binding reaction with lipid A” value [1] read?
Answer: can bind with lipid A

Question: What about the “neutralization of LPS in vitro” value [2] of the same compound?
Answer: can neutralize LPS in vitro

Question: What about the “inhibition of the release … by LPS” value (RAW264.7 cells [3]) of the same compound?
Answer: can inhibit the release of TNF-α

Question: And the “inhibition … by CpG DNA” value (RAW264.7 cells [4])?
Answer: can inhibit the release of TNF-α

Question: And the “survival rate of mice” value (sepsis model of mice)?
Answer: 50%

Question: What about the “comparison of protective effect among the salts” value (sepsis model of mice; four salts compared) of the same compound?
Answer: has the best effect

Question: What about the “protective effect to the sepsis model of mice” value (from here on “protective effect … of mice”) (sepsis model of mice) of the same compound?
Answer: have protective effects to the sepsis model of mice

Question: Which “binding reaction with lipid A” value [1] does the source give for `CC(O)C(=O)O.NCCCN(CCCCNCCCNC(=O)CCc1ccc(O)c(O)c1)C(=O)CCc1ccc(O)c(O)c1` [kukoamine B lactate] here?
Answer: can bind with lipid A

Question: And the “neutralization of LPS in vitro” value [2]?
Answer: can neutralize LPS in vitro

Question: And the “inhibition of the release … by LPS” value (RAW264.7 cells [3])?
Answer: can inhibit the release of TNF-α

Question: And the “inhibition … by CpG DNA” value (RAW264.7 cells [4])?
Answer: can inhibit the release of TNF-α

Question: With `Cc1ccc(S(=O)(=O)O)cc1.NCCCN(CCCCNCCCNC(=O)CCc1ccc(O)c(O)c1)C(=O)CCc1ccc(O)c(O)c1` [kukoamine B p-toluenesulfonate] as the compound, how does the “binding reaction with lipid A” value [1] read?
Answer: can bind with lipid A

Question: What about the “neutralization of LPS in vitro” value [2] of the same compound?
Answer: can neutralize LPS in vitro

Question: What about the “inhibition of the release … by LPS” value (RAW264.7 cells [3]) of the same compound?
Answer: can inhibit the release of TNF-α

Question: What about the “inhibition … by CpG DNA” value (RAW264.7 cells [4]) of the same compound?
Answer: can inhibit the release of TNF-α

Question: What about the “survival rate of mice” value (sepsis model of mice) of the same compound?
Answer: 20%

Question: What about the “protective effect … of mice” value (sepsis model of mice) of the same compound?
Answer: have protective effects to the sepsis model of mice

Question: With kukoamine B benzene sulfonate as the compound, how does the “survival rate of mice” value (sepsis model of mice) read?
Answer: 30%

Question: And the “protective effect … of mice” value (sepsis model of mice)?
Answer: have protective effects to the sepsis model of mice

Question: For `CC(=O)O.NCCCN(CCCCNCCCNC(=O)CCc1ccc(O)c(O)c1)C(=O)CCc1ccc(O)c(O)c1` [kukoamine B acetate], which “binding reaction with lipid A” value [1] is on record?
Answer: can bind with lipid A

Question: What about the “neutralization of LPS in vitro” value [2] of the same compound?
Answer: can neutralize LPS in vitro

Question: What about the “inhibition of the release … by LPS” value (RAW264.7 cells [3]) of the same compound?
Answer: can inhibit the release of TNF-α

Question: And the “inhibition … by CpG DNA” value (RAW264.7 cells [4])?
Answer: can inhibit the release of TNF-α
